Experimental data taken from patent publication US9872883B2, “Methods of producing anamorelin hydrochloride having controlled chloride content” (HELSINN HEALTHCARE SA, priority 2012, dated 2018).
In brackets after ≈: the same amount, converted by molar mass. Structures can show the parent of a compound that is named as a salt.

Key:
Assay type in all cases: physicochemical
[1] = Long-term stability of batches having differing chloride contents, % increase in total impurities
Description: The long-term stability of three separate batches of anamorelin monohydrochloride (or composition comprising anamorelin monohydrochloride) having differing chloride contents were evaluated for stability at 25° C./60% relative humidity for one, two and three years, and 40° C./75% relative humidity for one, three and six months. The results are presented below in Table 3C. % Increase in Table 3C was calculated by the following formula. % Increase=(M−I)/I×100
I: initial total impurity (%)
M: measured total impurity (%) at specific time (e.g., 3 months, 6 month and so forth)

[2] = Stability testing for anamorelin dihydrochloride relative to the monohydrochloride and free base at 40° C./75% relative humidity
Description: Stability testing for anamorelin dihydrochloride relative to the monohydrochloride and anamorelin free base at 40° C./75% relative humidity is reported below in Table 3D. For the anamorelin dihydrochloride preparation, anamorelin free base was dissolved in ethyl acetate and a molar excess of hydrochloric acid in ethyl acetate was added into the mixture to precipitate anamorelin dihydrochloride. The resulting anamorelin dihydrochloride was filtered and dried (chloride content approximately 12.2%). HPLC Area % in Table 3D refers to the amount of converted value of anamorelin free base in samples.

[3] = Solubility test in distilled water (HPLC); settings: distilled water (initial pH 7)
Description: A solution of standard curve was prepared to 356 μmol/L by diluting standard substance (anamorelin free base (quantitative value: 93.90%), 86.6 mmol/L, isopropyl acetate solution) with acetonitrile. In addition, a sample solution was prepared according to the process that test compound (about 100 mg) added into distilled water (10.00 g), the solution was mixed for 10 minutes at 50° C. and then was placed overnight, obtained suspension was filtered by syringe with filter (0.2 μm) and the filtrate (48.93 mg) was diluted with acetonitrile (10 mL). A solution of standard curve and a sample solution (each 5 μL) were determined by injecting into HPLC (GULLIVER1500 HPLC system, JASCO Corporation).

[4] = Stability testing of spray dried amorphous anamorelin monohydrochloride (Batch A), purity and impurities by HPLC; design: Impurity 1 / Impurity 2 / Impurity 3 / Impurity 4 / Impurity 5 / Impurity 6 / Impurity 7: unit not given here
Description: The purity of the anamorelin monohydrochloride (or composition comprising anamorelin monohydrochloride) was measured using high performance liquid chromatograph (HPLC) (Hewlett-Packard HP 1100 HPLC System, Agilent Technologies Inc.). The concentrated aqueous solution of anamorelin monohydrochloride A of example 1 was concentrated by spray drying using Niro QSD-3.6 (trade mark, GEA process engineering Inc.) to afford anamorelin monohydrochloride referred to as Batch A in Tables 2A and 2B) in an amorphous state. RRT refers to the relative retention time of the impurity versus anamorelin. In addition, the purity was converted into the amount of anamorelin free base within a sample without any other organic solvent since anamorelin monohydrochloride (or composition comprising anamorelin monohydrochloride) was dissolved in the solvent to be measured by HPLC condition.

Compound: CN(C)N(C)C(=O)[C@@]1(Cc2ccccc2)CCCN(C(=O)[C@@H](Cc2c[nH]c3ccccc23)NC(=O)C(C)(C)N)C1 [5.6%]
- % Increase in Total Impurities From T0 ([1]; 25° C./60% RH, 1 Y): 10%
- % Increase in Total Impurities From T0 ([1]; 25° C./60% RH, 2 Y): 48%
- % Increase in Total Impurities From T0 ([1]; 25° C./60% RH, 3 Y): 29%

Compound: CN(C)N(C)C(=O)[C@@]1(Cc2ccccc2)CCCN(C(=O)[C@@H](Cc2c[nH]c3ccccc23)NC(=O)C(C)(C)N)C1 [5.9%]
- % Increase in Total Impurities From T0 ([1]; 25° C./60% RH, 1 Y): 0%
- % Increase in Total Impurities From T0 ([1]; 25° C./60% RH, 2 Y): 20%
- % Increase in Total Impurities From T0 ([1]; 25° C./60% RH, 3 Y): 20%
- % Increase in Total Impurities From T0 ([1]; 40° C./75% RH, 1 M): 0%
- % Increase in Total Impurities From T0 ([1]; 40° C./75% RH, 3 M): 21%
- % Increase in Total Impurities From T0 ([1]; 40° C./75% RH, 6 M): 17%

Compound: CN(C)N(C)C(=O)[C@@]1(Cc2ccccc2)CCCN(C(=O)[C@@H](Cc2c[nH]c3ccccc23)NC(=O)C(C)(C)N)C1 [6.2%]
- % Increase in Total Impurities From T0 ([1]; 25° C./60% RH, 1 Y): 85%
- % Increase in Total Impurities From T0 ([1]; 25° C./60% RH, 2 Y): 114%
- % Increase in Total Impurities From T0 ([1]; 25° C./60% RH, 3 Y): 100%
- % Increase in Total Impurities From T0 ([1]; 40° C./75% RH, 1 M): 107%
- % Increase in Total Impurities From T0 ([1]; 40° C./75% RH, 3 M): 100%
- % Increase in Total Impurities From T0 ([1]; 40° C./75% RH, 6 M): 171%

Compound: CN(C)N(C)C(=O)[C@@]1(Cc2ccccc2)CCCN(C(=O)[C@@H](Cc2c[nH]c3ccccc23)NC(=O)C(C)(C)N)C1 [6.3%]
- % Increase in Total Impurities From T0 ([1]; 25° C./60% RH, 1 Y): 200%
- % Increase in Total Impurities From T0 ([1]; 25° C./60% RH, 2 Y): 340%
- % Increase in Total Impurities From T0 ([1]; 25° C./60% RH, 3 Y): 360%
- % Increase in Total Impurities From T0 ([1]; 40° C./75% RH, 1 M): 140%
- % Increase in Total Impurities From T0 ([1]; 40° C./75% RH, 3 M): 400%
- % Increase in Total Impurities From T0 ([1]; 40° C./75% RH, 6 M): 500%

Compound: CN(C)N(C)C(=O)[C@@]1(Cc2ccccc2)CCCN(C(=O)[C@@H](Cc2c[nH]c3ccccc23)NC(=O)C(C)(C)N)C1 [Anamorelin Di-HCl, reference compound]
- HPLC Area % ([2]; 1M): 98.2%
- HPLC Area % ([2]; 3M): 97.1%
- HPLC Area % ([2]; I.T.): 98.9%
- long-term stability (in words) ([2]; relative to the monohydrochloride): easy to be changed

Compound: CN(C)N(C)C(=O)[C@@]1(Cc2ccccc2)CCCN(C(=O)[C@@H](Cc2c[nH]c3ccccc23)NC(=O)C(C)(C)N)C1 [Anamorelin Free Base, (3R)1-(2-methylalanyl-D-tryptophyl)-3-(phenylmethyl)-3-piperidinecarboxylic acid 1,2,2trimethylhydrazide]
- solubility [3]: 0.04 mg/mL (≈ 73.2 µM)
- HPLC Area % ([2]; 1M): 99.9%
- HPLC Area % ([2]; 3M): 99.7%
- HPLC Area % ([2]; I.T.): 99.7%

Compound: CN(C)N(C)C(=O)[C@@]1(Cc2ccccc2)CCCN(C(=O)[C@@H](Cc2c[nH]c3ccccc23)NC(=O)C(C)(C)N)C1 [anamorelin monohydrochloride]
- long-term stability (in words) ([1]; three years, 25° C./60% RH): nearly unchanged
- solubility [3]: >333 mg/mL
- HPLC Area % ([2]; 1M, listed as Anamorelin Mono-HCl): 99.3%
- HPLC Area % ([2]; 3M, listed as Anamorelin Mono-HCl): 99.2%
- HPLC Area % ([2]; I.T., listed as Anamorelin Mono-HCl): 99.9%
- stability (in words) ([4]; six months under each set of conditions): nearly unchanged

Compound: CN(C)N(C)C(=O)[C@@]1(Cc2ccccc2)CCCN(C(=O)[C@@H](Cc2c[nH]c3ccccc23)NC(=O)C(C)(C)N)C1 [anamorelin]
- Impurity 1 ([4]; 25° C./60% RH, 1 month): <0.05
- Impurity 2 ([4]; 25° C./60% RH, 1 month): <0.05
- Impurity 3 ([4]; 25° C./60% RH, 1 month): <0.05
- Impurity 4 ([4]; 25° C./60% RH, 1 month): <0.05
- Impurity 5 ([4]; 25° C./60% RH, 1 month): <0.05
- Impurity 6 ([4]; 25° C./60% RH, 1 month): <0.05
- Impurity 7 ([4]; 25° C./60% RH, 1 month): <0.05
- anamorelin (HPLC purity) ([4]; 25° C./60% RH, 1 month): 100.0%
- Impurity 1 ([4]; 25° C./60% RH, 3 months): <0.05
- Impurity 2 ([4]; 25° C./60% RH, 3 months): <0.05
- Impurity 3 ([4]; 25° C./60% RH, 3 months): <0.05
- Impurity 4 ([4]; 25° C./60% RH, 3 months): <0.05
- Impurity 5 ([4]; 25° C./60% RH, 3 months): <0.05
- Impurity 6 ([4]; 25° C./60% RH, 3 months): <0.05
- Impurity 7 ([4]; 25° C./60% RH, 3 months): <0.05
- anamorelin (HPLC purity) ([4]; 25° C./60% RH, 3 months): 100.0%
- Impurity 1 ([4]; 25° C./60% RH, 6 months): <0.05
- Impurity 2 ([4]; 25° C./60% RH, 6 months): <0.05
- Impurity 3 ([4]; 25° C./60% RH, 6 months): <0.05
- Impurity 4 ([4]; 25° C./60% RH, 6 months): <0.05
- Impurity 5 ([4]; 25° C./60% RH, 6 months): <0.05
- Impurity 6 ([4]; 25° C./60% RH, 6 months): <0.05
- Impurity 7 ([4]; 25° C./60% RH, 6 months): <0.05
- anamorelin (HPLC purity) ([4]; 25° C./60% RH, 6 months): 100.0%
- Impurity 1 ([4]; 40° C./75% RH, 1 month): <0.05
- Impurity 2 ([4]; 40° C./75% RH, 1 month): <0.05
- Impurity 3 ([4]; 40° C./75% RH, 1 month): <0.05
- Impurity 4 ([4]; 40° C./75% RH, 1 month): <0.05
- Impurity 5 ([4]; 40° C./75% RH, 1 month): <0.05
- Impurity 6 ([4]; 40° C./75% RH, 1 month): <0.05
- Impurity 7 ([4]; 40° C./75% RH, 1 month): <0.05
- anamorelin (HPLC purity) ([4]; 40° C./75% RH, 1 month): 100.0%
- Impurity 1 ([4]; 40° C./75% RH, 3 months): <0.05
- Impurity 2 ([4]; 40° C./75% RH, 3 months): <0.05
- Impurity 3 ([4]; 40° C./75% RH, 3 months): <0.05
- Impurity 4 ([4]; 40° C./75% RH, 3 months): <0.05
- Impurity 5 ([4]; 40° C./75% RH, 3 months): <0.05
- Impurity 6 ([4]; 40° C./75% RH, 3 months): <0.05
- Impurity 7 ([4]; 40° C./75% RH, 3 months): <0.05
- anamorelin (HPLC purity) ([4]; 40° C./75% RH, 3 months): 100.0%
- Impurity 1 ([4]; 40° C./75% RH, 6 months): <0.05
- Impurity 2 ([4]; 40° C./75% RH, 6 months): <0.05
- Impurity 3 ([4]; 40° C./75% RH, 6 months): <0.05
- Impurity 4 ([4]; 40° C./75% RH, 6 months): <0.05
- Impurity 5 ([4]; 40° C./75% RH, 6 months): <0.05
- Impurity 6 ([4]; 40° C./75% RH, 6 months): <0.05
- Impurity 7 ([4]; 40° C./75% RH, 6 months): <0.05
- anamorelin (HPLC purity) ([4]; 40° C./75% RH, 6 months): 100.0%
- Impurity 1 ([4]; Initial): <0.05
- Impurity 2 ([4]; Initial): <0.05
- Impurity 3 ([4]; Initial): <0.05
- Impurity 4 ([4]; Initial): <0.05
- Impurity 5 ([4]; Initial): <0.05
- Impurity 6 ([4]; Initial): <0.05
- Impurity 7 ([4]; Initial): <0.05
- anamorelin (HPLC purity) ([4]; Initial): 100.0%
